The nature of this data set: Average cumulative delivery / flux across cadaver skin. Type of data set: in vitro ADME. The settings on record: FIG. 15. The text has this:
The prodrug of Naltrexone with the PEG conjugation increased the molecular weight of the compound to be about 690 g/mole. […] The average flux for the Naltrexone was about 15.37 micrograms (μg) per hour per cm^2.

For `O=C1CC[C@@]2(O)[C@H]3Cc4ccc(O)c5c4[C@@]2(CCN3CC2CC2)[C@H]1O5` [Naltrexone], the “average flux across the cadaver skin” value is “about 15.37 micrograms (μg) per hour per cm^2”.
